Results on nine compounds are retold here after ChEMBL document CHEMBL1201862, “PubChem BioAssay data set” (2004).

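Grown in 96-well plates, cells were treated for 48 hours with each compound at five concentrations. Insufficient inhibition: endpoint recorded as highest concentration tested. Here, GI50 denotes the concentration required for 50% inhibition of growth.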 Active and inactive are the calls of the source. Rule as the data show it: active = GI50 up to about 1.1 µM and inactive = higher.

Among the test systems are A549; COLO 205; HCC 2998; HCT-116; HOP-62; KM12; MCF7; MOLT-4; Malme-3M; NCI-H23; NCI-H460; OVCAR-8; SF-268; SK-MEL-28; SK-MEL-5; SN12C; U-251; HCT-15.
Holding throughout (test): DTP human tumour cell line panel, 48 h

As for `CN(NC(=O)/C(=C/c1ccc(O)cc1)NC(=O)c1ccccc1)c1ccnc2cc(Cl)ccc12`, the GI50 is 19.6 µM (inactive) in the assay with A549; 17.5 µM (inactive) with COLO 205; 18.1 µM (inactive) in the assay with HCC 2998; 18.2 µM (inactive) with HCT-116; 15.1 µM (inactive) with HOP-62; 17.8 µM (inactive) with KM12. Further, the GI50 in the assay on MCF7 is 13.6 µM (inactive); in the assay on MOLT-4, 16.7 µM (inactive); with Malme-3M, 20 µM (inactive); in the assay on NCI-H23 it was > 10 µM (inactive); in the assay with NCI-H460, 15.6 µM (inactive); with OVCAR-8 it was 17.8 µM (inactive). Moreover, the GI50 with SF-268 is 15.1 µM (inactive); in the assay on SK-MEL-28, 19.9 µM (inactive); in the assay with SK-MEL-5, 21 µM (inactive); with SN12C, 24.9 µM (inactive); with U-251 it was 14.8 µM (inactive).
For the compound `CC1CN=C(N(C(=O)Nc2ccccc2)c2ccc(Cl)c(Cl)c2)S1` (stereo not given), the GI50 with A549 was 25.9 µM (inactive); with COLO 205, > 10 µM (inactive); in the assay on HCC 2998 it was 24.8 µM (inactive); in the assay on HCT-116 it was 23.1 µM (inactive); with HCT-15, 23.2 µM; with HOP-62, 97.3 µM (inactive). Besides, the GI50 with KM12 was 30.5 µM (inactive); in the assay on MCF7, 19.8 µM (inactive); in the assay on MOLT-4, > 10 µM (inactive); in the assay with Malme-3M, 38 µM (inactive); in the assay with NCI-H23 it was 32.8 µM (inactive); in the assay on NCI-H460, 19.3 µM (inactive). In addition, the GI50 was 35.6 µM (inactive) in the assay on OVCAR-8; 61 µM (inactive) with SF-268; 40.6 µM (inactive) in the assay with SK-MEL-28; 18.5 µM (inactive) with SK-MEL-5; 16.6 µM (inactive) in the assay on SN12C; > 10 µM (inactive) in the assay with U-251.
For `COC1=CC(=O)c2c(O)c3c(c(O)c2C1=O)OC1(Oc2c(cc4cc(C)oc(=O)c4c2O)CC1O)C3O` (stereo not given), the GI50 in the assay on A549 was 45.2 µM (inactive); in the assay on COLO 205, 32.8 µM (inactive); in the assay on HCC 2998 it was 28.9 µM (inactive); in the assay on HCT-116 it was 35.6 µM (inactive); in the assay on HCT-15 it was 29 µM; in the assay on HOP-62, 35.2 µM (inactive). For the same compound, the GI50 is 29.9 µM (inactive) in the assay with KM12; 43.9 µM (inactive) with MCF7; 23.3 µM (inactive) with MOLT-4; 2.14 µM (inactive) in the assay on Malme-3M; 35.6 µM (inactive) in the assay on NCI-H23; 27.4 µM (inactive) with NCI-H460. Further, the GI50 is 40.4 µM (inactive) with OVCAR-8; 61 µM (inactive) in the assay with SF-268; 46.5 µM (inactive) in the assay on SK-MEL-28; 26.6 µM (inactive) in the assay on SK-MEL-5; 23.5 µM (inactive) in the assay on SN12C; 39.9 µM (inactive) in the assay with U-251.
As to `c1ccc(C[n+]2ccc3c(c2)CCCC3)cc1`, the GI50 with A549 is 77.3 µM (inactive); in the assay on COLO 205 it was 66.5 µM (inactive); in the assay on HCC 2998 it was 22.9 µM (inactive); with HCT-116, 93.1 µM (inactive); with HCT-15, greater than 100 µM; with HOP-62, > 100 µM (inactive). The GI50 in the assay with KM12 is 62.2 µM (inactive); with MCF7, 52.1 µM (inactive); in the assay with MOLT-4 it was > 100 µM (inactive); in the assay with Malme-3M, 21.4 µM (inactive); in the assay with NCI-H23 it was 39.4 µM (inactive); with NCI-H460 it was 78.7 µM (inactive). Also, the GI50 was > 100 µM (inactive) in the assay on OVCAR-8; > 100 µM (inactive) in the assay on SF-268; > 100 µM (inactive) in the assay on SK-MEL-28; 19.6 µM (inactive) in the assay on SK-MEL-5; > 100 µM (inactive) in the assay on SN12C; 55.1 µM (inactive) in the assay with U-251.
In the case of `COc1cc(/C=C2\CCC(C)c3c2nc(N)c(C#N)c3-c2cc(OC)c(OC)c(OC)c2)cc(OC)c1OC` (stereo not given), the GI50 with A549 was > 100 µM (inactive); in the assay on HCT-116, > 100 µM (inactive); in the assay on HCT-15 it was 27.1 µM; with HOP-62, > 100 µM (inactive); in the assay on KM12, 51.6 µM (inactive); in the assay on MCF7 it was 29.9 µM (inactive). In addition, the GI50 in the assay with MOLT-4 was 25.2 µM (inactive); in the assay on OVCAR-8, 13.2 µM (inactive); in the assay with SF-268 it was 25.7 µM (inactive); in the assay with SK-MEL-28, > 100 µM (inactive); with SK-MEL-5, 71.9 µM (inactive); in the assay on SN12C, 44.4 µM (inactive). The GI50 with U-251 is 46 µM (inactive).
As for `CCO/C=N\C1=C(C#N)SC2=N/C(=C\c3ccco3)C(=O)N21`, the GI50 in the assay with A549 was > 100 µM (inactive); in the assay with COLO 205, > 100 µM (inactive); with HCC 2998, > 100 µM (inactive); in the assay on HCT-116, > 100 µM (inactive); with HCT-15, greater than 100 µM; with HOP-62, > 100 µM (inactive). In addition, the GI50 in the assay with KM12, in the assay on MCF7, in the assay with MOLT-4, in the assay with Malme-3M, with NCI-H23 and in the assay with OVCAR-8 was > 100 µM (inactive) throughout. The GI50 in the assay on SF-268, in the assay with SK-MEL-28, with SK-MEL-5, in the assay on SN12C and with U-251 was > 100 µM (inactive) throughout.
As to `Cc1nn(CNc2ccc(F)c(Cl)c2)c(=S)n1/N=C/c1ccc(-c2ccc(Cl)cc2Cl)o1`, the GI50 was 15.7 µM (inactive) in the assay with HCT-116; 16.9 µM with HCT-15; 14.1 µM (inactive) with HOP-62; 20.5 µM (inactive) in the assay with KM12; 18.2 µM (inactive) in the assay on MCF7; 0.493 µM (active) with MOLT-4. Further, the GI50 was 20.1 µM (inactive) with NCI-H23; 17.1 µM (inactive) in the assay with NCI-H460; 20.8 µM (inactive) with OVCAR-8; 16.3 µM (inactive) with SF-268; 19.7 µM (inactive) in the assay with SK-MEL-28; 16.7 µM (inactive) in the assay on SK-MEL-5. In addition, in the assay on U-251, the GI50 was 14.7 µM (inactive).
For `CC1(C)CC[C@]2(C)CC=C3[C@]4(C)CC[C@H]5C(C)(C)C(=O)CC[C@]5(C)[C@H]4CC[C@@]3(C)[C@H]2C1`, the GI50 in the assay with A549 was > 100 µM (inactive); with COLO 205 it was > 100 µM (inactive); with HCC 2998, > 100 µM (inactive); in the assay with HCT-116, > 100 µM (inactive); with HCT-15, greater than 100 µM; with HOP-62 it was > 100 µM (inactive). In addition, the GI50 with KM12, in the assay on MCF7, with MOLT-4, with Malme-3M, in the assay on NCI-H23 and in the assay with OVCAR-8 was > 100 µM (inactive) throughout. Also, the GI50 in the assay with SF-268, in the assay with SK-MEL-28, in the assay with SK-MEL-5, with SN12C and in the assay with U-251 was > 100 µM (inactive) throughout.
In the case of `CC[S+]([O-])C(=O)N(O)c1ccc(Cl)cc1` (stereo not given), the GI50 with A549 is 67.3 µM (inactive); with COLO 205, 36 µM (inactive); in the assay on HCC 2998, 43.3 µM (inactive); in the assay with HCT-116, 24.4 µM (inactive); with HCT-15, 23.8 µM; in the assay on HOP-62, > 100 µM (inactive). Also, the GI50 was 15.6 µM (inactive) in the assay with KM12; 20.4 µM (inactive) in the assay on MCF7; 9.64 µM (inactive) in the assay with MOLT-4; 20.8 µM (inactive) in the assay on SF-268; 17.4 µM (inactive) with SK-MEL-28; 26.4 µM (inactive) in the assay with SK-MEL-5. Besides, the GI50 in the assay on SN12C was 22.3 µM (inactive); in the assay on U-251, 19.4 µM (inactive).

One may read the GI50 as the concentration giving 50% growth inhibition.
